From ChEMBL document CHEMBL1201862, “PubChem BioAssay data set” (2004)
The source made the active and inactive calls.

How the values were obtained:
Mucolipin-3 = biological target: T1, Mucolipin-3 (Homo sapiens, UniProt Q8TDD5); test: Dose response cell-based high-throughput screening assay for agonists of the transient receptor potential channel ML3 (TRPML3). [Related pubchem assays: 1526, 1424, 1448 ]; assay type: functional
T1 sequence (Q8TDD5 whole entry): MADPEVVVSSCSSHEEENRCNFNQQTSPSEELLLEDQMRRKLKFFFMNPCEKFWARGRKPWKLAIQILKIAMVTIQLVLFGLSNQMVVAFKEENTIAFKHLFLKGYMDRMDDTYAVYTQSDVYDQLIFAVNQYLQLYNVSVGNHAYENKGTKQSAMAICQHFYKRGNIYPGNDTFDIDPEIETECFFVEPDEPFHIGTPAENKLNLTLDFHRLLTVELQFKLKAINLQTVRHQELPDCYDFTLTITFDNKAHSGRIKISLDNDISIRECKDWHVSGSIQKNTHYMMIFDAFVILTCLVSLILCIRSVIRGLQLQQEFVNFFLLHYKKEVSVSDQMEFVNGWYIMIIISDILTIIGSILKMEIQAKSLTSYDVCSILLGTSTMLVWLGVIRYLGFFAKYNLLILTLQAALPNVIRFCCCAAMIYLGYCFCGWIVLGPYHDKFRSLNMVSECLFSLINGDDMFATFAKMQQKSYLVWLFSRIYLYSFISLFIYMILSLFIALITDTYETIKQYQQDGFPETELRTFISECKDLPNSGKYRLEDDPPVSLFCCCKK

Ion channel NompC = Ion channel NompC (Danio rerio, UniProt Q7T1G6); test: Fluorescence counterscreen assay for TRPML3 agonists: dose response cell-based high-throughput screening assay to identify agonists of the transient receptor potential channel N1 (TRPN1). [Related pubchem assays: 1526, 1424, 1448 ]; assay type: functional
[1] = HPDE-C7 pancreatic duct cell viability loss – fluorescence, HTS (AID 430); assay type: functional, cell-based; conditions: Homo sapiens
[2] = viability loss of HPDE-C7K cells – cell-based, fluorescence, HTS, primary screen (AID 431); assay type: functional; conditions: Homo sapiens
Cytochrome P450 3A4 = Cytochrome P450 3A4 (Homo sapiens, UniProt P08684); conditions: Potency;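 note: confirmatory qHTS run detecting inhibitors and substrates of CYP3A4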
[3] = biological target: Peroxisome proliferator-activated receptor gamma/Nuclear receptor coactivator 2 (Homo sapiens, UniProt P37231); assay type: functional;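 note: agonist potency for raising coactivator recruitment to the receptor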
[4] = biological target: Peroxisome proliferator-activated receptor gamma/Nuclear receptor coactivator 1 (Homo sapiens, UniProt P37231); assay type: functional;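 note: agonist potency as compounds enhance coactivator SRC-1 recruitment to PPARgamma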
[5] = biological target: Peroxisome proliferator-activated receptor gamma/Nuclear receptor coactivator 3 (Homo sapiens, UniProt P37231); assay type: functional;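 note: agonist potency for raising coactivator recruitment to the receptor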
[6] = CellTiter-Glo luminescence survival assay, SW480 colon tumor line, concentration-response curve, half-maximal inhibitory concentration (AID 1117338); assay type: functional
[7] = RKO cell viability reduction, dose response, CellTiter-Glo luminescence (AID 1117322); assay type: functional
[8] = cytotoxicity toward HCT116 cells – cell-based, CellTiter-Glo luminescence, IC50, dose response (AID 1117332); assay type: functional; conditions: HCT-116
[9] = SNU-C1 cell viability reduction, dose response, CellTiter-Glo luminescence (AID 1117323); assay type: functional, cell-based
[10] = cytotoxicity toward Colo320 cells – cell-based, CellTiter-Glo luminescence, IC50, dose response (AID 1117334); assay type: functional; conditions: COLO 320
[11] = cytotoxicity toward HT-29 cells – cell-based, CellTiter-Glo luminescence, IC50, dose response (AID 1117330); assay type: functional
[12] = Reduced DLD-1 viability, concentration-response, CellTiter-Glo luminescence (AID 1117352); assay type: functional
[13] = HCT116 cell viability decrease, GSK3B pretreatment – CellTiter-Glo, IC50, dose response (AID 1117339); assay type: functional; conditions: HCT-116
[14] = Luminescence Cell-Based Dose Response to Identify Activators of 5'UTR Stem-Loop Driven Prion Protein mRNA Translation in H4-C Neuroglioblastoma Cells. [Related pubchem assays: 1829 (Project Summary), 1814 (Primary HTS)]; assay type: functional
[15] = Luminescence Cell-Based Dose Confirmation HTS to Identify Activators of 5'UTR Stem-Loop Driven Alpha-Synuclein mRNA Translation in H4 Neuroglioblastoma Cells. [Related pubchem assays: 1829 (Project Summary), 1814 (Primary HTS)]; assay type: functional
[16] = Luminescence Cell-Based Dose Response HTS to Identify Activators of Luciferase Translation or Activity in H4 […] Cells. [Related pubchem assays: 1829 (Project Summary), 1814 (Primary HTS)]; assay type: functional
[17] = Luminescence Cell-Based Dose Response to Identify Activators of Luciferase Translation or Activity in H4-C Neuroglioblastoma Cells. [Related pubchem assays: 1829 (Project Summary), 1814 (Primary HTS)]; assay type: functional
[18] = Luminescence Cell-Based Dose Confirmation to Identify Activators of 5'UTR Stem-Loop Driven Alpha-Synuclein mRNA Translation in H4 Neuroglioblastoma Cells. [Related pubchem assays: 1829 (Project Summary), 1814 (Primary HTS)]; assay type: functional
[19] = P. falciparum Dd2 growth inhibitors, dose response, SYBR Green, cherry-picked samples (AID 1159567); assay type: functional, cell-based

Sequence of Peroxisome proliferator-activated receptor gamma/Nuclear receptor coactivator 1 (P37231 whole entry): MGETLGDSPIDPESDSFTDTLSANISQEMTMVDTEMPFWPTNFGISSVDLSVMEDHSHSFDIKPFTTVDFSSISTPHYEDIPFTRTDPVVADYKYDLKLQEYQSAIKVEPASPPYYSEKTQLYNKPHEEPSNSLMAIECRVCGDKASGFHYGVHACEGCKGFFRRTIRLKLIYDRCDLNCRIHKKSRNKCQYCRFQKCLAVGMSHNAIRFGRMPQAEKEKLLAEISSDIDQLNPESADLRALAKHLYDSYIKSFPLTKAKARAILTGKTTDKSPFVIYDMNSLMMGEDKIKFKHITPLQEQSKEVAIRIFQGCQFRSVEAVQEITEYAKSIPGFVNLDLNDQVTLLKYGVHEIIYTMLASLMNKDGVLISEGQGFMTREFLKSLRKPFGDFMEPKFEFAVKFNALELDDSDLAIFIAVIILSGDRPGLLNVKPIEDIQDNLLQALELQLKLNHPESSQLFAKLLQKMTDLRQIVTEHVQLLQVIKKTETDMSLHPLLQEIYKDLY
Sequence of Peroxisome proliferator-activated receptor gamma/Nuclear receptor coactivator 1 (Q15788 whole entry, further chain): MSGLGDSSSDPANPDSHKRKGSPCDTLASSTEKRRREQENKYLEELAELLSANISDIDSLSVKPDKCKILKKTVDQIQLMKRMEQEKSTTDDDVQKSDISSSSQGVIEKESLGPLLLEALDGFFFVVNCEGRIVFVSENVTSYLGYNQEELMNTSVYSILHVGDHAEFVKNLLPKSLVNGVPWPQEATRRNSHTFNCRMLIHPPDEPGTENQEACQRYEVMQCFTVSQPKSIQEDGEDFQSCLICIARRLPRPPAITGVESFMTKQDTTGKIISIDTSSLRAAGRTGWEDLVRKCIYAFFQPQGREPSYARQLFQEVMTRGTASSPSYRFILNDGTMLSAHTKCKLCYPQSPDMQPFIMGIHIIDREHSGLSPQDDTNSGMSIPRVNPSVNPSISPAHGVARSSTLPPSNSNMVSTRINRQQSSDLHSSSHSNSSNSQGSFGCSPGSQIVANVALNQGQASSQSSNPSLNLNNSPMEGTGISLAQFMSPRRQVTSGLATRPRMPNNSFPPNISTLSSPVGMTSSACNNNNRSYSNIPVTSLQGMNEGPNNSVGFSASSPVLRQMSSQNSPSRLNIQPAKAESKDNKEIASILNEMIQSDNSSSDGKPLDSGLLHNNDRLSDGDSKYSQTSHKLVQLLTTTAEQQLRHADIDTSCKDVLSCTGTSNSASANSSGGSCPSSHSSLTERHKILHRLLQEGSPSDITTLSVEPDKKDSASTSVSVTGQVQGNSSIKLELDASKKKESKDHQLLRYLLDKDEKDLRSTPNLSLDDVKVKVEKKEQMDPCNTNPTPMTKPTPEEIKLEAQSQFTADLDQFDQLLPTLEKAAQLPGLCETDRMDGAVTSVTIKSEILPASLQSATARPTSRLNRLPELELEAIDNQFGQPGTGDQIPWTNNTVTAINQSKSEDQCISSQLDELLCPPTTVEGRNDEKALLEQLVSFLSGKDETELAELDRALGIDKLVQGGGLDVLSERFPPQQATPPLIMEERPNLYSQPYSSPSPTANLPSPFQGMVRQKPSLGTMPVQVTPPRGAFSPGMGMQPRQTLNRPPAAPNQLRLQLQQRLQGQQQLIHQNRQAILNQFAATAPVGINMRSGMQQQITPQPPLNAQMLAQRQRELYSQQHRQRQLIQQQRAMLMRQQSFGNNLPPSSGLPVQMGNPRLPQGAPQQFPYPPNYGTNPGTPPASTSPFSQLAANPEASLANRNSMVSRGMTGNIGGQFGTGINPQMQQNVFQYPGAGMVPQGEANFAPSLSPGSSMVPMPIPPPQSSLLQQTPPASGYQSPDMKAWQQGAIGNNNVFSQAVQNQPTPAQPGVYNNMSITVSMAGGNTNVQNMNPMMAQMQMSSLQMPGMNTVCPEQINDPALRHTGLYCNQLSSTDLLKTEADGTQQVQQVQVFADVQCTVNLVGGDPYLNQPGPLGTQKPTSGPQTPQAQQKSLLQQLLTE
Sequence of Peroxisome proliferator-activated receptor gamma/Nuclear receptor coactivator 3 (P37231 whole entry): as the sequence (P37231 whole entry) above
Sequence of Peroxisome proliferator-activated receptor gamma/Nuclear receptor coactivator 3 (Q9Y6Q9 whole entry, further chain): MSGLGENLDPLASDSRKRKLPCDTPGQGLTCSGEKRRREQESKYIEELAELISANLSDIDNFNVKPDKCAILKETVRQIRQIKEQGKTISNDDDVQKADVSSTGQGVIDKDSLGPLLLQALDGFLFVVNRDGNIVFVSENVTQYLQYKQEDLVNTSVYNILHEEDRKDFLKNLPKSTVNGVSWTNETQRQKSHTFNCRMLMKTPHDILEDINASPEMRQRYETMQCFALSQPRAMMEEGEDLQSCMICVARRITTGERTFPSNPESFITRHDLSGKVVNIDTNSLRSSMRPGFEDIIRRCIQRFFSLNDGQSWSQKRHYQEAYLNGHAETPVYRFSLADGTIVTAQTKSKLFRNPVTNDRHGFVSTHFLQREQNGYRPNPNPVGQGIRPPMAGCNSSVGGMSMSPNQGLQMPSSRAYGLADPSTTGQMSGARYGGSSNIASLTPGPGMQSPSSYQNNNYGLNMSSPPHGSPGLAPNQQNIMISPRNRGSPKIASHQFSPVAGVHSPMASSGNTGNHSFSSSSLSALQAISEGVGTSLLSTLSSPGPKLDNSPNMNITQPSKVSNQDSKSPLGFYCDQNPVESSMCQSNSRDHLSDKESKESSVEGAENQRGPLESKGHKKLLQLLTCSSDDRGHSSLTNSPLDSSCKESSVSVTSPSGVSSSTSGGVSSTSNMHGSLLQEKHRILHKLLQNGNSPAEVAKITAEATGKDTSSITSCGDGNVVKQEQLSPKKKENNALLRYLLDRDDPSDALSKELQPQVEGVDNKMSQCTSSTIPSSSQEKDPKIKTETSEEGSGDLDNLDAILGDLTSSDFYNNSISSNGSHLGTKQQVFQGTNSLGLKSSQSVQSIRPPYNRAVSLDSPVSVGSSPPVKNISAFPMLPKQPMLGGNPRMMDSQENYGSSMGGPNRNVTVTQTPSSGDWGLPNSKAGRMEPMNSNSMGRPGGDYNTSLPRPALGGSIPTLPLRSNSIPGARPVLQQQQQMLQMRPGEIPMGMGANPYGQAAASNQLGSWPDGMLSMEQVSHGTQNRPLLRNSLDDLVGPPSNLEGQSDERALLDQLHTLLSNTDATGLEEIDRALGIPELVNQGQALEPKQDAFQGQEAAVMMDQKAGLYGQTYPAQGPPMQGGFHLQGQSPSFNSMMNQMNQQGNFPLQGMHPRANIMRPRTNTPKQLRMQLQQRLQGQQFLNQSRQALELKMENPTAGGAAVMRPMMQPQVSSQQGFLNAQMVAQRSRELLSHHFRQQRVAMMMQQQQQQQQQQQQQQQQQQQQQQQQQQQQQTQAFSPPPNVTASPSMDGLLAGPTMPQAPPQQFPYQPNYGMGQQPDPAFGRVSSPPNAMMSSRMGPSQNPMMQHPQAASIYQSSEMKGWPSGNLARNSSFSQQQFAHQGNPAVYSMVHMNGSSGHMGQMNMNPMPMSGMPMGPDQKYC
Sequence of Cytochrome P450 3A4 (P08684 whole entry): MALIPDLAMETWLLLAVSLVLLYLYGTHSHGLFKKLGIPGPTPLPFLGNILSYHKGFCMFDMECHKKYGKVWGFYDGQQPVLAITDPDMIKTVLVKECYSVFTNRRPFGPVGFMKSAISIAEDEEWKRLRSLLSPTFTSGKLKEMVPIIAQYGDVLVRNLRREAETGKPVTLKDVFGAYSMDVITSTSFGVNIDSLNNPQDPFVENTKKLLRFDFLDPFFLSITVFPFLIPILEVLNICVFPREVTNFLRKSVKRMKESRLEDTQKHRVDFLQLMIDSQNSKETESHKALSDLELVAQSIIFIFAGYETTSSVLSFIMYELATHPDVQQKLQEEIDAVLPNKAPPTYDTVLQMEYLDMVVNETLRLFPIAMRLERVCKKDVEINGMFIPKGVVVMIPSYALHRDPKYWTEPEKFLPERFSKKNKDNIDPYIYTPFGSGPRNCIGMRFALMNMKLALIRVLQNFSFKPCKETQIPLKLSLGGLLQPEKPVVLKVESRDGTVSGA

For CCOC(=O)C1=C(NC(=S)NC(=O)c2ccccc2)c2ccccc2CC1(C)C, the EC50 (Mucolipin-3) was 5.5 µM (active) and the EC50 (Ion channel NompC) was > 29.9 µM (not active).
In the case of CC1CN(c2oc(COc3ccc(Cl)cc3Cl)nc2C#N)CC(C)O1 (configuration not stated), the EC50 [1] is reported as > 20 µM (not active) and the EC50 [2] is reported as > 20 µM (not active).
For COC(C)C(O)(C(=O)OC1=CCN2CC[C@H](O)[C@H]12)C(C)C (some centres not stated), the AC50 (Cytochrome P450 3A4) was 50.1 µM (inconclusive).
In the case of O=c1[nH]n(-c2ccccc2)c(=O)c2ccccc12, the EC50 [3] is reported as > 79.4 µM (not active), the EC50 [4] is reported as > 79.4 µM (not active) and the EC50 [5] is reported as > 79.4 µM (not active).
With CSCCNC(C)=O the EC50 [3] was > 79.4 µM (not active), the EC50 [4] was > 79.4 µM (not active) and the EC50 [5] was > 79.4 µM (not active).
In the case of CC1CCC(C(C)C)C(OC(=O)c2ccccc2O)C1 (configuration not stated), the IC50 [6] is reported as > 20 µM (inactive), the IC50 [7] is reported as > 20 µM (inactive) and the IC50 [8] is reported as > 20 µM (inactive). For the same molecule, the IC50 [9] was > 20 µM (inactive), the IC50 [10] was > 20 µM (inactive) and the IC50 [11] was > 20 µM (inactive). The IC50 [12] was > 20 µM (inactive) and the IC50 [13] was > 20 µM (inactive).
With CC(=N)/C(C#N)=C(/O)CSc1nc2cc(C)ccc2[nH]1 the EC50 [14] was 0.321 µM (active), the EC50 [15] was 1.68 µM (active) and the EC50 [16] was < 0.1 µM (active). For the same molecule, the EC50 [17] was 0.296 µM (active) and the EC50 [18] was 0.424 µM (active).
For COc1ccc(CN2CC3(CCN(C(=O)c4ccccc4)CC3)c3c([nH]c4cc(OC)ccc34)[C@@H]2CO)cc1, the AC50 [19] was 3 µM (active).
For COc1ccc2c3c(n(C)c2c1)[C@H](CO)N(Cc1ccccc1F)CC31CCN(CC2CC2)CC1, the AC50 [19] was 3.46 µM (active).
In the case of COc1ccc(C(=O)c2ccccc2O)c(O)c1 [DIOXYBENZONE], the IC50 [6] is reported as > 20 µM (inactive), the IC50 [7] is reported as > 20 µM (inactive) and the IC50 [8] is reported as > 20 µM (inactive). The IC50 [10] was > 20 µM (inactive), the IC50 [11] was > 20 µM (inactive) and the IC50 [12] was > 20 µM (inactive).
With CCC1Nc2cc(Cl)c(S(N)(=O)=O)cc2S(=O)(=O)N1 (configuration not stated) [ETHIAZIDE] the IC50 [6] was > 6.67 µM (inactive), the IC50 [7] was > 20 µM (inactive) and the IC50 [8] was > 20 µM (inactive). The IC50 [9] was > 20 µM (inactive), the IC50 [10] was > 20 µM (inactive) and the IC50 [11] was > 20 µM (inactive). For the same molecule, the IC50 [12] was > 20 µM (inactive) and the IC50 [13] was > 20 µM (inactive).
In the case of CN(C)c1ccc(C(=C2C=CC(=[N+](C)C)C=C2)c2ccc(N(C)C)cc2)cc1 [GENTIAN VIOLET], the IC50 [6] is reported as 0.528 µM (active), the IC50 [7] is reported as 0.994 µM (active) and the IC50 [8] is reported as 0.514 µM (active). For the same molecule, the IC50 [9] was 0.394 µM (active), the IC50 [10] was 2.05 µM (active) and the IC50 [11] was 0.466 µM (active). The IC50 [12] was 0.471 µM (active).
